Results as given in PubChem BioAssay (NCI).
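Test compounds were applied to cells in 96-well plates for 48 hours at 5 doses. TGI denotes the concentration required for complete inhibition of growth.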

Tests used:
Assay in all cases: NCI anticancer screen, dose series, 48 h
786-0 renal = test system: 786-0 renal
A498 renal = test system: A498 renal
A549 NSCLC = test system: A549 NSCLC
ACHN renal = test system: ACHN renal
BT-549 breast = test system: BT-549 breast
CAKI-1 renal = test system: CAKI-1 renal
CCRF-CEM leukemia = test system: CCRF-CEM leukemia
COLO 205 colon = test system: COLO 205 colon
DU-145 prostate = test system: DU-145 prostate
EKVX NSCLC = test system: EKVX NSCLC
HCT-116 colon = test system: HCT-116 colon
HCT-15 colon = test system: HCT-15 colon
HL-60(TB) leukemia = test system: HL-60(TB) leukemia
HOP-62 NSCLC = test system: HOP-62 NSCLC
HOP-92 NSCLC = test system: HOP-92 NSCLC
HS 578T breast = test system: HS 578T breast
HT29 colon = test system: HT29 colon
IGROV1 ovarian = test system: IGROV1 ovarian
K-562 leukemia = test system: K-562 leukemia
KM12 colon = test system: KM12 colon
LOX IMVI melanoma = test system: LOX IMVI melanoma
M14 melanoma = test system: M14 melanoma
MALME-3M melanoma = test system: MALME-3M melanoma
MCF7 breast = test system: MCF7 breast
MDA-MB-231 breast = test system: MDA-MB-231 breast
MDA-MB-435 = test system: MDA-MB-435
MDA-N = test system: MDA-N
MOLT-4 leukemia = test system: MOLT-4 leukemia
NCI-H226 lung = test system: NCI-H226 lung
NCI-H23 lung = test system: NCI-H23 lung
NCI-H460 lung = test system: NCI-H460 lung
NCI-H522 lung = test system: NCI-H522 lung
NCI/ADR-RES ovarian = test system: NCI/ADR-RES ovarian
OVCAR-3 ovarian = test system: OVCAR-3 ovarian
OVCAR-4 ovarian = test system: OVCAR-4 ovarian
OVCAR-5 ovarian = test system: OVCAR-5 ovarian
OVCAR-8 ovarian = test system: OVCAR-8 ovarian
PC-3 prostate = test system: PC-3 prostate
RPMI-8226 leukemia = test system: RPMI-8226 leukemia
RXF 393 renal = test system: RXF 393 renal
SF-268 CNS = test system: SF-268 CNS
SF-295 CNS = test system: SF-295 CNS
SF-539 CNS = test system: SF-539 CNS
SK-MEL-2 melanoma = test system: SK-MEL-2 melanoma
SK-MEL-28 melanoma = test system: SK-MEL-28 melanoma
SK-MEL-5 melanoma = test system: SK-MEL-5 melanoma
SK-OV-3 ovarian = test system: SK-OV-3 ovarian
SN12C renal = test system: SN12C renal
SNB-19 CNS = test system: SNB-19 CNS
SNB-75 CNS = test system: SNB-75 CNS
SR leukemia = test system: SR leukemia
SW-620 colon = test system: SW-620 colon
T-47D breast = test system: T-47D breast
TK-10 renal = test system: TK-10 renal
U251 CNS = test system: U251 CNS
UACC-257 melanoma = test system: UACC-257 melanoma
UACC-62 melanoma = test system: UACC-62 melanoma
UO-31 renal = test system: UO-31 renal
HCC-2998 colon = test system: HCC-2998 colon

Cc1nc(CN2CCCCC2)c(O)c(=O)[nH]1
TGI (786-0 renal): > 100 µM
TGI (A498 renal): > 100 µM
TGI (A549 NSCLC): > 100 µM
TGI (ACHN renal): > 100 µM
TGI (BT-549 breast): > 100 µM
TGI (CAKI-1 renal): > 100 µM
TGI (CCRF-CEM leukemia): > 100 µM
TGI (COLO 205 colon): > 100 µM
TGI (DU-145 prostate): > 100 µM
TGI (EKVX NSCLC): > 100 µM
TGI (HCT-116 colon): > 100 µM
TGI (HCT-15 colon): > 100 µM
TGI (HL-60(TB) leukemia): > 100 µM
TGI (HOP-62 NSCLC): > 100 µM
TGI (HOP-92 NSCLC): > 100 µM
TGI (HS 578T breast): > 100 µM
TGI (HT29 colon): > 100 µM
TGI (IGROV1 ovarian): > 100 µM
TGI (K-562 leukemia): > 100 µM
TGI (KM12 colon): > 100 µM
TGI (LOX IMVI melanoma): > 100 µM
TGI (M14 melanoma): > 100 µM
TGI (MALME-3M melanoma): > 100 µM
TGI (MCF7 breast): > 100 µM
TGI (MDA-MB-231 breast): > 100 µM
TGI (MDA-MB-435): > 100 µM
TGI (MDA-N): > 100 µM
TGI (MOLT-4 leukemia): > 100 µM
TGI (NCI-H226 lung): > 100 µM
TGI (NCI-H23 lung): > 100 µM
TGI (NCI-H460 lung): > 100 µM
TGI (NCI-H522 lung): > 100 µM
TGI (NCI/ADR-RES ovarian): > 100 µM
TGI (OVCAR-3 ovarian): > 100 µM
TGI (OVCAR-4 ovarian): > 100 µM
TGI (OVCAR-5 ovarian): > 100 µM
TGI (OVCAR-8 ovarian): > 100 µM
TGI (PC-3 prostate): > 100 µM
TGI (RPMI-8226 leukemia): > 100 µM
TGI (RXF 393 renal): > 100 µM
TGI (SF-268 CNS): > 100 µM
TGI (SF-295 CNS): > 100 µM
TGI (SF-539 CNS): > 100 µM
TGI (SK-MEL-2 melanoma): > 100 µM
TGI (SK-MEL-28 melanoma): > 100 µM
TGI (SK-MEL-5 melanoma): > 100 µM
TGI (SK-OV-3 ovarian): > 100 µM
TGI (SN12C renal): > 100 µM
TGI (SNB-19 CNS): > 100 µM
TGI (SNB-75 CNS): > 100 µM
TGI (SR leukemia): > 100 µM
TGI (SW-620 colon): > 100 µM
TGI (T-47D breast): > 100 µM
TGI (TK-10 renal): > 100 µM
TGI (U251 CNS): > 100 µM
TGI (UACC-257 melanoma): > 100 µM
TGI (UACC-62 melanoma): > 100 µM
TGI (UO-31 renal): > 100 µM

COc1cc(C2SC(N)=Nc3c2c(C)nn3C(=O)c2ccccc2O)ccc1O (configuration not stated)
TGI (786-0 renal): > 10 µM
TGI (A498 renal): > 10 µM
TGI (A549 NSCLC): > 10 µM
TGI (ACHN renal): > 10 µM
TGI (BT-549 breast): > 10 µM
TGI (CAKI-1 renal): > 10 µM
TGI (CCRF-CEM leukemia): > 10 µM
TGI (COLO 205 colon): > 10 µM
TGI (DU-145 prostate): > 10 µM
TGI (EKVX NSCLC): > 10 µM
TGI (HCC-2998 colon): > 10 µM
TGI (HCT-116 colon): > 10 µM
TGI (HCT-15 colon): > 10 µM
TGI (HL-60(TB) leukemia): > 4.56 µM
TGI (HOP-62 NSCLC): > 10 µM
TGI (HOP-92 NSCLC): > 10 µM
TGI (HS 578T breast): > 10 µM
TGI (HT29 colon): > 10 µM
TGI (IGROV1 ovarian): > 3.33 µM
TGI (K-562 leukemia): > 3.75 µM
TGI (KM12 colon): > 10 µM
TGI (LOX IMVI melanoma): > 10 µM
TGI (M14 melanoma): > 10 µM
TGI (MALME-3M melanoma): > 10 µM
TGI (MCF7 breast): > 10 µM
TGI (MDA-MB-231 breast): > 10 µM
TGI (MDA-MB-435): > 10 µM
TGI (MDA-N): > 10 µM
TGI (MOLT-4 leukemia): > 10 µM
TGI (NCI-H226 lung): > 6.18 µM
TGI (NCI-H23 lung): > 10 µM
TGI (NCI-H460 lung): > 10 µM
TGI (NCI-H522 lung): > 10 µM
TGI (NCI/ADR-RES ovarian): > 10 µM
TGI (OVCAR-3 ovarian): > 10 µM
TGI (OVCAR-4 ovarian): > 6.37 µM
TGI (OVCAR-5 ovarian): > 10 µM
TGI (OVCAR-8 ovarian): > 10 µM
TGI (PC-3 prostate): > 10 µM
TGI (RPMI-8226 leukemia): > 7.78 µM
TGI (RXF 393 renal): > 10 µM
TGI (SF-268 CNS): > 10 µM
TGI (SF-295 CNS): > 10 µM
TGI (SF-539 CNS): > 2.31 µM
TGI (SK-MEL-2 melanoma): > 10 µM
TGI (SK-MEL-28 melanoma): > 10 µM
TGI (SK-MEL-5 melanoma): > 10 µM
TGI (SK-OV-3 ovarian): > 10 µM
TGI (SN12C renal): > 10 µM
TGI (SNB-19 CNS): > 10 µM
TGI (SNB-75 CNS): > 10 µM
TGI (SR leukemia): > 2.73 µM
TGI (SW-620 colon): > 10 µM
TGI (T-47D breast): > 10 µM
TGI (TK-10 renal): > 10 µM
TGI (U251 CNS): > 10 µM
TGI (UACC-257 melanoma): > 10 µM
TGI (UACC-62 melanoma): > 10 µM
TGI (UO-31 renal): > 10 µM
